Here are results for 1 compound from US7022690B2, “Carboxylic acid substituted heterocycles, derivatives thereof and methods of use” (Amgen Inc., priority 1997, dated 2006).

Assay [1] addresses Human neutrophil collagenase (HNC) (Homo sapiens, UniProt P22894). Put plainly: Human Neutrophil Collagenase Assay. Type of assay: biochemical. Conditions: fluorogenic peptide substrate, 96-well plate in duplicate; reference inhibitor.
Protocol: Human neutrophil collagenase (HNC) activity is determined by using fluorogenic peptide substrate Dnp-Pro-b-Cyclohexyl-Ala-Gly-Cys(Me)-His-Ala-Lys-(N-methylanthranilic acid)-NH2. The N-terminus Dnp group and the C-terminus N-methyl-anthranilyl moiety (Nma) are fluorescence self-quenching until the peptide is cleaved at the Gly-Cys(me) bond. The fluorescence from the cleavage products is measured on a Bio-Tek Instrument FL500 fluorescence micro-plate reader (excitation at 360 nm, emission at 460 nm).
The target in assay [2] is Human fibroblast stromelysin (HFS) (Homo sapiens, UniProt P08254). As to the kind of experiment: biochemical.
Human fibroblast stromelysin (HFS), sequence (P08254 100-477): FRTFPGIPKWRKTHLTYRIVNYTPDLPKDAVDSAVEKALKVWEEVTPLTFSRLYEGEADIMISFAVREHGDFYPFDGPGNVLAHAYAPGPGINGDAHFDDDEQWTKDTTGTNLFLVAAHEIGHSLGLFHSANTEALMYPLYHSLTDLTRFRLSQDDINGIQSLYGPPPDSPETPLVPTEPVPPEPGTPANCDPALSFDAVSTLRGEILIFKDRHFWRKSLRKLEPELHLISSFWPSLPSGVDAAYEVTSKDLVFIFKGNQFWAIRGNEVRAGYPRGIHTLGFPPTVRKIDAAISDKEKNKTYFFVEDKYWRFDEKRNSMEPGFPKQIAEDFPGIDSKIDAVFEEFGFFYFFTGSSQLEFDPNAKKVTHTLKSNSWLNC
Protocol: Human Fibroblast Stromelysin Assay
Human fibroblast stromelysin (HFS) activity is determined by using fluorogenic peptide substrate Dnp-Pro-b-Cyclohexyl-Ala-Gly-Cys(Me)-His-Ala-Lys-(N-methylanthranilic acid)-NH2. The N-terminus Dnp group and the C-terminus N-methyl-anthranilyl moiety (Nma) are fluorescence self-quenching until the peptide is cleaved at the Gly-Cys(me) bond. The fluorescence from the cleavage products is measured on a Bio-Tek Instrument FL500 fluorescence micro-plate reader (excitation at 360 nm, emission at 460 nm).

Human neutrophil collagenase (HNC), sequence (P22894 101-467): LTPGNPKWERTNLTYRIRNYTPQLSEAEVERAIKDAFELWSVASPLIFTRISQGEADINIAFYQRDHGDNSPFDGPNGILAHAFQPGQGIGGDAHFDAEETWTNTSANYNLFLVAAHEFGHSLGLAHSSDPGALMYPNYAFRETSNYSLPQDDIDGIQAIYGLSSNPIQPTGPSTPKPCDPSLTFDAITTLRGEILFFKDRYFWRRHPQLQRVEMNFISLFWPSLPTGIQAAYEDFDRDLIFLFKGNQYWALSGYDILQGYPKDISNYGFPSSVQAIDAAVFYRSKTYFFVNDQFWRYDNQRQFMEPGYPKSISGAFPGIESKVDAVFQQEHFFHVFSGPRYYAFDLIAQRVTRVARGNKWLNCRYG

Usually Ki stands for a measure of affinity in units of concentration, obtained from inhibition or displacement. Regarding `CCCCC[C@H](CC(=O)NO)C(=O)N[C@H](C(=O)N1CCC[C@H]1CO)C(C)C` [Actinonin], the inhibitory constant (Ki) in assay [1] and in assay [2] was 722 nM in each case.
